Where two headings read alike, the source gives them in different places.
Experiments:
[1] = molecular target: T1, Stat3:Stat3 DNA-binding activity (Mus musculus, UniProt P42227); assay: EMSA of Stat3:Stat3 DNA-binding activity in nuclear extracts; type: biochemical; settings: for Stat3:Stat3 % of Con, pre-formed Stat3:DNA complex: extract pre-incubated with hSIE probe 30 min
T1 construct: endogenous in cells; host or cells: NIH3T3/v-Src fibroblasts; EGF-stimulated NIH3T3/hEGFR fibroblasts (nuclear extracts)
T1 sequence (P42227 2-770 limits assumed): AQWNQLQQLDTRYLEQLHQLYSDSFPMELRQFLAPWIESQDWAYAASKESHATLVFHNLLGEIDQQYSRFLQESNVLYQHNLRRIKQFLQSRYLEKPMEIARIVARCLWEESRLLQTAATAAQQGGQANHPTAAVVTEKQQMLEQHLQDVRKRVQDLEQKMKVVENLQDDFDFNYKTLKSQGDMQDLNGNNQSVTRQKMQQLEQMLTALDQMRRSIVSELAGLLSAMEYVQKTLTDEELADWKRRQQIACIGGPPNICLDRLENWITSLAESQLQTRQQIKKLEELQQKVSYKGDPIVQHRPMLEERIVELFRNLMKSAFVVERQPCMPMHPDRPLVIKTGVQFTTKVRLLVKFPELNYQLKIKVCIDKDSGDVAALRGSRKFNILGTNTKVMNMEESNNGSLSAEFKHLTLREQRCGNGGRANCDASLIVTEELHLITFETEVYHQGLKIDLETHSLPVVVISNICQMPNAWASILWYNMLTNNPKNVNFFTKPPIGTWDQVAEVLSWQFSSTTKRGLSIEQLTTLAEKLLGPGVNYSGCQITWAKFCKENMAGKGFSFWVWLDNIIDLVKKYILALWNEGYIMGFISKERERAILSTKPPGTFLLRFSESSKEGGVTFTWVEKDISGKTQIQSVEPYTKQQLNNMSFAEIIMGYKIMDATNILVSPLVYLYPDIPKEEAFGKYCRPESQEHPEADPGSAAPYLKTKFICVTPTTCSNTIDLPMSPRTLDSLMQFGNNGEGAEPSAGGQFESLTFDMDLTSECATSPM
Procedure: Details are presented in Supplementary Information, “Methods”. […]
min, prior to incubation with the radiolabeled probe for 30 min at 30 °C and subjecting to EMSA analysis.
In another case, the nuclear extract was pre-incubated with the radiolabeled probe for 30 min at 30 °C prior to incubation with increasing concentration of H182 at room temperature for 30 min and subjecting to EMSA analysis. Bands corresponding to Stats DNA- binding activities were scanned and quantified using ImageJ and plotted as a percentage of control (vehicle) against the concentration of the inhibitor, from which the IC50 values were derived .

[2] = molecular target: SH2 domain of pure recombinant Stat3 (Homo sapiens, UniProt P40763); assay: Stat3 fluorescence polarization (FP) assay; type: binding; settings: 0–10 μM, 5-carboxyfluorescein-GpYLPQTV-NH2 probe
Sequence of SH2 domain of pure recombinant Stat3 (P40763 whole entry, the tested form may be a part): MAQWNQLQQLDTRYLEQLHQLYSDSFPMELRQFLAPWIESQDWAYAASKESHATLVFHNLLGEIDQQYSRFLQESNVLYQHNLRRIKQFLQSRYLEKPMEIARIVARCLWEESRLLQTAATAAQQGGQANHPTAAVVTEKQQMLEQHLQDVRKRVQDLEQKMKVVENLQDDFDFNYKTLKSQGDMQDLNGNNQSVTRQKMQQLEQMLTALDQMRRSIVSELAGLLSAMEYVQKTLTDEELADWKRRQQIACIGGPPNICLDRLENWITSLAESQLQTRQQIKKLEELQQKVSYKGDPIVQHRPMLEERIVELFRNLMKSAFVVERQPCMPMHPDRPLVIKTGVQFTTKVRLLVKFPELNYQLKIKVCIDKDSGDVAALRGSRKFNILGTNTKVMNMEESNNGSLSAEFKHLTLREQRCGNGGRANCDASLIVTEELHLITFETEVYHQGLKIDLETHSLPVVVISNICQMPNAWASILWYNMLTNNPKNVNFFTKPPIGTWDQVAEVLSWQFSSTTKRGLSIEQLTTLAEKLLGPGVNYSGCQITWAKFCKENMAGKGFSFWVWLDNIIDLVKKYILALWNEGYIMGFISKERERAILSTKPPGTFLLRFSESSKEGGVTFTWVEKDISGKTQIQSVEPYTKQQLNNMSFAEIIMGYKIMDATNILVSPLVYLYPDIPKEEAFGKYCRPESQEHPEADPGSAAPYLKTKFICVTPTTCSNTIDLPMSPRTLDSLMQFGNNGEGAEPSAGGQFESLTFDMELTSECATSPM
Procedure: Details are presented in Supplementary Information, “Methods”.
The Stat3:azetidine compound interaction was investigated further by focusing on how the compounds might interfere with Stat3 dimerization (Stat3:Stat3), which occurs via pTyr peptide:SH2 domain interaction. […]
confocal microscope (Stellaris 8-STED Super -resolution , Germany) with a 60x oil lens and images were processed by ImageJ software.
1.2.9. Fluorescence polarization assay (FP)
These studies were conducted as previously reported using the labeled phosphopeptide, 5-carboxyfluorescein GpYLPQTV-NH 2 (where pY represents phospho-Tyr) as probe and purified recombinant Stat3, with some modifications. […]
10 µM of unlabeled GpYLPQTV-NH 2 (positive control) or H182 at 30 °C for 30 min in the indicated assay buffer conditions, prior to the addition of the labeled probe at 10 nM final concentration and incubated for 30 min at room temperature, and thereafter reading the FP signal at 10, 30, and 60 min using the SpectraMax ID5 (Molecular Devices, San Jose, CA), with the set gain adjustment at 35 mP. In some cases, the recombinant His-Stat3 was pre-incubated with the unlabeled GpYLPQTV-NH 2 or H182 at 0-10 µM for 10 min or at 0-50 µM for 30 min prior to incubation with the labeled probe, and thereafter reading the FP signal at 10, 30, or 60 min using the SpectraMax ID5, with the set gain adjustment at 35 mP.
1.2.10. […]

[3] = Mouse liver microsome stability; type: in vitro ADME; settings: liver microsomes, read-out: Metabolic Stability MLM t1/2
Procedure: Solubility, human (HLM) and mouse liver microsomal (MLM), and plasma stability studies were performed by Eurofins Cerep Panlabs and Eurofin Discovery Services (www.eurofins.com/PharmaDiscovery), while protein binding studies were performed by Sanford Burnham Prebys Chemical Biology & Drug Discovery Core using standard protocols.

[4] = molecular target: T2, hERG (Homo sapiens, UniProt Q12809); assay: hERG Qpatch assay; type: cell-based
T2 construct: Eurofins-CEREP (contract research organisation that ran the assay)
T2 sequence (Q12809 whole entry): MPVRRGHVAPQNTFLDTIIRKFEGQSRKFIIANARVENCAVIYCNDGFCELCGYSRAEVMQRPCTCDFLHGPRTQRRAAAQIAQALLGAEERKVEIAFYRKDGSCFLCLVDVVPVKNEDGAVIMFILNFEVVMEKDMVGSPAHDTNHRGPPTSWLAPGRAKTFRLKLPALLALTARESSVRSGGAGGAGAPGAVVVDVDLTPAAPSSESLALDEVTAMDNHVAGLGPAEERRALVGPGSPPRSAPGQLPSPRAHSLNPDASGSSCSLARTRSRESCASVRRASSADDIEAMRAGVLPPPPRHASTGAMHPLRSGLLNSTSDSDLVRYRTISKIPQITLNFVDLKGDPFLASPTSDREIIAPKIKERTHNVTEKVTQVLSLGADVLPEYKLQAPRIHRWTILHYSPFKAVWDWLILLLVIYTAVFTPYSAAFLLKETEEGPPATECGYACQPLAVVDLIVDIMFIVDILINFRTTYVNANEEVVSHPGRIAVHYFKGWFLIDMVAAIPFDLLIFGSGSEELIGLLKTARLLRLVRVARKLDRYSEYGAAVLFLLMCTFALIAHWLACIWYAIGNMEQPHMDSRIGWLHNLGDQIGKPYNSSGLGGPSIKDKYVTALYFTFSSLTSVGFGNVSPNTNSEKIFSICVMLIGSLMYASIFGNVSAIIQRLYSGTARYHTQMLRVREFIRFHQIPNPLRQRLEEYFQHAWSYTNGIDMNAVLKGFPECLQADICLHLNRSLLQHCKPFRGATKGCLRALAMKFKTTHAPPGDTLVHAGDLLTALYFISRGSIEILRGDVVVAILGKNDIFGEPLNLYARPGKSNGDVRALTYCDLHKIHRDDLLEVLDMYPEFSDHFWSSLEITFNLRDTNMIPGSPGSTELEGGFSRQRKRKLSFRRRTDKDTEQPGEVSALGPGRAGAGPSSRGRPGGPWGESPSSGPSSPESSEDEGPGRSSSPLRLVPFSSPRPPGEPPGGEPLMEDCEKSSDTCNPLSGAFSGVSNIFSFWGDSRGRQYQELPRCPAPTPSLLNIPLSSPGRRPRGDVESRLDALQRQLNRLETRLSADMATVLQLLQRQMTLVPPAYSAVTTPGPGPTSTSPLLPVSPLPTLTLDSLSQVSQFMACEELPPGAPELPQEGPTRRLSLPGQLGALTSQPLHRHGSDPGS

[5] = molecular target: Stat3 (Homo sapiens, UniProt P40763); assay: Stat3 activity and target gene expression in extracted tumor tissues; type: in vivo, mouse; parameters: Tissue lysates of equal total protein prepared from the extracted tumors; from tissue; host or cells: extracted tumour tissue from treated and untreated mice
Sequence of Stat3 (P40763 2-770 limits assumed): as the sequence (P42227 2-770 limits assumed) above, with D759E counted along it
Procedure: We then profiled tumor tissues for Stat3 activity and Stat3 target gene expression as pharmacodynamic markers of therapeutic response. Tissue lysates of equal total protein prepared from the extracted tumors were subjected to Stat3 DNA-binding assay/EMSA analysis or SDS-PAGE and immunoblotting analysis.
These studies were performed as previously described [1 -3] . Briefly, snap-frozen tumor tissues or cultured cells treated or not were harvested and whole-cell or tissue lysates were prepared in radioimmunoprecipitation assay (RIPA) buffer. Samples of equal total protein were subjected to SDS - PAGE and immunoblotting analysis. Primary antibodies used were anti- Stat3, pY705-Stat3, pS727Stat3, […]
Akt, pT202/Y204Erk1/2 (p44/42), Erk1/2, PARP , caspase 3, c-Myc, survivin, VEGF, β-actin, α/β-tubulin, and GAPDH. For the studies of the effects of cell density and confluence on pY705Stat3, cells were seeded […] in culture dishes. The next day, cells were untreated (DMSO control, […]
concentration of H182 for 6 h and then treated with 0- 100 nM docetaxel or 0-20 µM cisplatin for a total of 72 h. Viable cell numbers were assessed by a CyQuant cell proliferation kit according to the manufacturer’s instructions (Thermo/Life Technologies Corp, Carlsbad, CA). […]

[6] = 2 μM H182, incubation time 3 min
[7] = 2 μM H182, incubation time 10 min
[8] = 2 μM H182, incubation time 30 min
[9] = 2 μM H182, incubation time 60 min

O=C([C@H]1CCN1S(=O)(=O)c1c(F)c(F)c(F)c(F)c1F)N(Cc1ccc(C2CCCCC2)cn1)c1ccc2c(=O)[nH]ncc2c1 [Compound H182]
Stat3:Stat3 Intensity (% of Con) ([1]; 2 μM H182, incubation time 0 min): 100 % of Con | Stat3:Stat3 Intensity (% of Con) [1, 6]: 84 % of Con | inhibition at 2 µM [1, 6]: 16% | Stat3:Stat3 Intensity (% of Con) [1, 7]: 65 % of Con | inhibition at 2 µM [1, 7]: 35% | Stat3:Stat3 Intensity (% of Con) [1, 8]: 14 % of Con | inhibition at 2 µM [1, 8]: 86% | Stat3:Stat3 Intensity (% of Con) [1, 9]: 0.1 % of Con | inhibition at 2 µM [1, 9]: 99.9% | IC50 ([1]; EMSA, NIH3T3/v-Src nuclear extracts, 30-min incubation at room temperature before hSIE probe, read-out: Stat3:Stat3 IC50): 660 ± 100 nM | IC50 ([1]; EMSA, incubation time 10 min before hSIE probe, read-out: Stat3:Stat3 IC50): 1470 nM | IC50 ([1]; EMSA, incubation time 60 min before hSIE probe, read-out: Stat3:Stat3 IC50): 380 nM | IC50 ([1]; Fig. 1C, extracts of EGF-stimulated NIH3T3/hEGFR, hSIE probe, 30 min, read-out: IC50 Stat3:Stat3): 700 nM | Stat3:Stat3 % of Con, pre-formed Stat3:DNA complex ([1]; then 1 μM H182 30 min): 101 % of Con | Stat3:Stat3 % of Con, pre-formed Stat3:DNA complex ([1]; then 3 μM H182 30 min): 101 % of Con | Stat3:Stat3 % of Con, pre-formed Stat3:DNA complex ([1]; then 10 μM H182 30 min): 100 % of Con | Stat3:Stat3 % of Con, pre-formed Stat3:DNA complex ([1]; then 30 μM H182 30 min): 98 % of Con | Stat3:Stat3 % of Con, pre-formed Stat3:DNA complex ([1]; then 100 μM H182 30 min): 86 % of Con | IC50 ([1]; range over the named compounds and incubation times, read-out: IC50 Stat3 DNA-binding activity in vitro (summary range)): 380 to 980 nM | Inhibition of the pre-formed Stat3:DNA complex ([1]; up to 100 μM H182): unable to inhibit the pre-formed Stat3:DNA complex | Effect on FP signal [2]: fluctuations of the FP signal | half-life [3]: > 2.5 h | IC50 [4]: > 10000 nM | Stat3 DNA-binding activity in tumor tissues ([5]; EMSA of tumor tissue lysates, treated vs untreated control): suppressed Stat3 DNA-binding activity in tumor tissues | Expression of c-Myc, VEGF, and survivin in tumor tissues ([5]; immunoblotting of tumor tissue lysates): suppression of the expression of Stat3 downstream genes

From article PMC9867837 (Cancer letters, 2022)
